Results: US20160000750A1, “COMBINATION OF EGCG OR METHYLATED EGCG AND A PDE INHIBITOR” (KYUSHU UNIVERSITY, NATIONAL UNIVERSITY CORPORATION, priority 2010, published 2016)

What was measured:
[1] = system: human prostate cancer cell line, PC3; assay: Trypan blue cell viability and viable cell count, PC3; assay type: cell-based; conditions: vardenafil 5 μM, EGCG 10 μM added after 2 hours, 96 hours
Procedure: A human prostate cancer cell line, PC3, was subcultured in an RPMI 1640 medium supplemented with 10% fetal calf serum (FCS) at 37° C. under vapor-saturated 5% CO2 conditions. The cells were cultured in the logarithmic growth phase. The RPMI 1640 medium used in the culture was prepared by suspending 10.4 g of an RPMI 1640 medium, 2.38 g of HEPES, 0.5 vial of Penicillin G Potassium for Injection 200000 Unit, 0.1 vial of Streptomycin Sulfate for Injection 1 g, and 2.0 g of NaHCO3 in 1 L of ultrapure water, followed by filter sterilization. Subsequently, the RPMI 1640 medium was supplemented with fetal calf serum (FCS) and was used in cell culture. A trypan blue staining solution was prepared by suspending trypan blue in PBS at a concentration of 1% and was used in investigation of the anti-cancer activity of a combination of EGCG and vardenafil by trypan blue assay. The PBS used was prepared by dissolving 8.0 g of NaCl, 0.2 g of KCl, 1.15 g of Na2HPO4, and 0.2 g of KH2PO4 in 1 L of ultrapure water, followed by autoclave sterilization. […] After 10 minutes, the number of the cells was counted with a hemocytometer. Unstained cells were deemed as viable cells, and the cell viability was determined as a ratio of the number of unstained cells in trypan blue staining to the total number of cells. […]

[2] = system: Toll-like receptor (TLR) 2; assay: TLR2 expression in RAW 264.7 by Western blotting; assay type: cell-based, mouse; conditions: vardenafil 5 μM, EGCG 10 μM added after 3 hours, 24 hours, untreated = 100
Procedure: A mouse macrophage cell line, RAW 264.7, was seeded in a 5-mL dish at 1×10^5 cells/mL and was pre-cultured in a DMEM medium supplemented with 1% FCS for 24 hours. Subsequently, vardenafil was added thereto at a concentration of 5 μM. After 3 hours, EGCG was added thereto at a concentration of 0 μM or 10 μM. After 24 hours, the cells were collected, and the expressions of Toll-like receptor (TLR) 2 and TLR 4 were measured by Western blotting.

(−)-epigallocatechin-3-O-gallate [EGCG]
cell viability (cell-killing activity) [1]: any cytotoxicity was not observed
TLR2 expression level(%) [2]: 90%
